Measurements from patent publication US7652020B2, “Compounds for the treatment of inflammatory disorders” (Schering Corporation, priority 2004, dated 2010).

biological target: T1, purified catalytic domain of recombinant human TACE (rhTACEc) (Homo sapiens, UniProt P78536, N452Q/S266A); assay: TACE kinetic assay: cleavage of internally quenched peptide substrate SPDL-3, fluorescence; assay type: biochemical; settings: Ki (nM), TACE, representative compounds, numeric values
T1 construct: Residue 215 to 477 with two mutation (S266A and N452Q) and a 6×His tail; 6xHis (C); made in house; host or cells: baculovirus/Hi5 insect cells
T1 sequence (P78536 215-477 S266A/N452Q): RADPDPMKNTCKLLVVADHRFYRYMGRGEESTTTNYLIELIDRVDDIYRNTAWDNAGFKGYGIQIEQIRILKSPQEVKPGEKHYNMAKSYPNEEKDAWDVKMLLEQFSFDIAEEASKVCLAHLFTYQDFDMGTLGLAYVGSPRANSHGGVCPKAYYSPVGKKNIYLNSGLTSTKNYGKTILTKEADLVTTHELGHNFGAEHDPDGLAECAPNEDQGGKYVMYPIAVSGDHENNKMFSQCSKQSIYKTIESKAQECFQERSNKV

Work on Cc1nc2ccccc2n1Cc1ccc(CNC(=O)[C@H](O)[C@@H](O)C(=O)N2Cc3ccccc3C2)s1 yielded a Ki of 0.5 nM.

same assay, conditions: TACE inhibitory activity, class symbols; read-out: Ki

C[C@@H](NC(=O)[C@H](O)[C@@H](O)C(=O)N1CCCCC1)c1ccc(-n2cccn2)cc1 [Compound 2408] and C[C@@H](NC(=O)[C@H](O)[C@@H](O)C(=O)N1CCOCC1)c1ccc(-n2cccn2)cc1 [Compound 2422] fall in the same range of Ki: 20 to 100 nM for the first, 20 to 100 nM for the second.

First: O=C([C@H](O)[C@@H](O)c1cncc(-c2ccccc2)n1)N1Cc2ccccc2C1 [Compound 2391]
Second: O=C(NCc1ccc(-c2ccccc2OC(F)(F)F)c[n+]1[O-])[C@H](O)[C@@H](O)C(=O)N1Cc2ccccc2C1 [Compound 2348]
The Ki of the first is higher: over 1000 nM for the first, 100 to 1000 nM for the second. The second binds more tightly here.

Compared with C[C@@H](NC(=O)[C@H](O)[C@@H](O)C(=O)N1CC(C)(C)CC1c1cccc(Cl)c1)c1ccc(-n2cccn2)cc1 (stereo partly drawn) [Compound 2237], C[C@@H](NC(=O)[C@H](O)[C@@H](O)C(=O)N1CC=C[C@@H]1c1cccc(Cl)c1)c1ccc(-n2cccn2)cc1 [Compound 2264] is lower in Ki: 100 to 1000 nM for the first, under 20 nM for the second. The second binds more tightly here.

First: CCCN(C(=O)[C@H](O)[C@@H](O)C(=O)N[C@H](C)c1ccc(-n2cccn2)cc1)C(C)c1cccc(Cl)c1 (stereo partly drawn) [Compound 2486]
Second: C[C@@H](NC(=O)[C@H](O)[C@@H](O)C(=O)N1CC=C[C@H]1c1cccc(Cl)c1)c1ccc(-n2cccn2)cc1 [Compound 2263]
The Ki of the first is higher: over 1000 nM for the first, 100 to 1000 nM for the second.

First: C[C@@H](NC(=O)[C@H](O)[C@@H](O)C(=O)N1Cc2cncnc2C1(C)C)c1ccc(-n2cccn2)cc1 [Compound 2046]
Second: C[C@@H](NC(=O)[C@H](O)[C@@H](O)C(=O)N1Cc2cncnc2C1)c1ccc(-n2cccn2)cc1 [Compound 2044]
The Ki of the first is higher: 100 to 1000 nM for the first, under 20 nM for the second.

C[C@@H](NC(=O)[C@H](O)[C@@H](O)C(=O)N1CCC[C@@H]1c1csc(NS(C)(=O)=O)n1)c1ccc(-n2cccn2)cc1 [Compound 2581] and CNc1nc([C@H]2CCCN2C(=O)[C@H](O)[C@@H](O)C(=O)N[C@H](C)c2ccc(-n3cccn3)cc2)cs1 [Compound 2252] cannot be ordered by Ki: under 20 nM for the first, under 20 nM for the second.

First: O=C(NCc1ccc(-c2ccccc2OC(F)(F)F)cn1)[C@H](O)[C@@H](O)C(=O)N1CCCC1 [Compound 2350]
Second: CCOc1ncccc1-c1ccc(CNC(=O)[C@H](O)[C@@H](O)C(=O)N2CCCC2)cc1 [Compound 2335]
The Ki of the first is lower: under 20 nM for the first, 100 to 1000 nM for the second.

First: C[C@@H](NC(=O)[C@H](O)[C@@H](O)C(=O)N1CCc2nc(N)sc2C1)c1ccc(-n2cccn2)cc1 [Compound 2081]
Second: C[C@@H](NC(=O)[C@H](O)[C@@H](O)C(=O)N1CCc2[nH]ncc2C1)c1ccc(-n2cccn2)cc1 [Compound 2073]
The Ki of the first is lower: under 20 nM for the first, 20 to 100 nM for the second. The first binds more tightly here.

C[C@@H](NC(=O)[C@H](O)[C@@H](O)C(=O)N1CCCN1c1ccccc1)c1ccc(-n2cccn2)cc1 [Compound 2496] and C[C@@H](NC(=O)[C@H](O)[C@@H](O)C(=O)N1CCN(c2ccccc2)C(=O)C1)c1ccc(-n2cccn2)cc1 [Compound 2425] fall in the same range of Ki: 100 to 1000 nM for the first, 100 to 1000 nM for the second.

First: C[C@@H](NC(=O)[C@H](O)[C@@H](O)C(=O)N1CCCC1(C)c1nccs1)c1ccc(-n2cccn2)cc1 (stereo partly drawn) [Compound 2251]
Second: C[C@@H](NC(=O)[C@H](O)[C@@H](O)C(=O)N1CC(C)(C)CC1(C)c1nccs1)c1ccc(-n2cccn2)cc1 (stereo partly drawn) [Compound 2241]
The Ki of the first is lower: under 20 nM for the first, 100 to 1000 nM for the second. The first binds more tightly here.

First: C[C@@H](NC(=O)[C@](C)(O)[C@@H](O)C(=O)N1CCCCC1c1ccccc1)c1ccc(-n2cccn2)cc1 (stereo partly drawn) [Compound 2411]
Second: C[C@@H](NC(=O)[C@H](O)[C@@H](O)C(=O)N1CCNCC1c1ccccc1)c1ccc(-n2cccn2)cc1 (stereo partly drawn) [Compound 2414]
The Ki of the first is higher: over 1000 nM for the first, 20 to 100 nM for the second. The second binds more tightly here.

Compared with C[C@](O)(C(=O)NCC1CCN(c2ccc(F)cc2C#N)CC1)[C@@H](O)C(=O)N1Cc2ccncc2C1 [Compound 2041], N#Cc1cc(F)ccc1N1CCC(CNC(=O)[C@H](O)[C@@H](O)C(=O)N2C3CCC2CC3)CC1 [Compound 2094] is higher in Ki: 20 to 100 nM for the first, over 1000 nM for the second. The first binds more tightly here.

C[C@@H](NC(=O)[C@H](O)[C@@H](O)C(=O)N1Cc2cccnc2C1)c1ccc(-n2cccn2)c(O)c1 [Compound 2305] and COc1cc([C@@H](C)NC(=O)[C@](C)(O)[C@@H](O)C(=O)N2Cc3cccnc3C2)ccc1-n1cccn1 [Compound 2355] cannot be ordered by Ki: under 20 nM for the first, under 20 nM for the second.

C[C@@H](NC(=O)[C@H](O)[C@@H](O)C(=O)N1CCc2ccccc2[C@@H]1c1csc(N)n1)c1ccc(-n2cccn2)cc1 [Compound 2585] and CC(C)Nc1nc([C@@H]2c3ccc(Cl)cc3CCN2C(=O)[C@H](O)[C@@H](O)C(=O)N[C@H](C)c2ccc(-n3cccn3)cc2)cs1 [Compound 2590] cannot be ordered by Ki: under 20 nM for the first, under 20 nM for the second.

C[C@@H]1CN(c2ccccc2C#N)CCC1CNC(=O)[C@H](O)[C@@H](O)C(=O)N1CCC[C@@H]1c1ccccc1 (stereo partly drawn) [Compound 2144] and Cc1nc2c(s1)CN(C(=O)[C@H](O)[C@@H](O)C(=O)NCC1CCN(c3ccccc3C#N)CC1C)C2 (stereo partly drawn) [Compound 2151] cannot be ordered by Ki: under 20 nM for the first, under 20 nM for the second.

Compared with CO[C@@H](C(=O)NCc1ccc(-c2ccc(F)cc2OCCC2CCCCC2)cc1)[C@@H](O)C(=O)N1Cc2cccnc2C1 [Compound 2476], O=C(NCC1CCN(c2ccccc2OC(F)(F)F)CC1)[C@H](O)[C@@H](O)C(=O)N1Cc2cccnc2C1 [Compound 2035] is lower in Ki: 20 to 100 nM for the first, under 20 nM for the second. The second binds more tightly here.

CNc1nccc([C@H]2CCCN2C(=O)[C@H](O)[C@@H](O)C(=O)N[C@H](C)c2ccc(-n3cccn3)cc2)n1 [Compound 2249] and C[C@@H](NC(=O)[C@H](O)[C@@H](O)C(=O)N1CCCC1c1nccs1)c1ccc(-n2cccn2)cc1 (stereo partly drawn) [Compound 2600] cannot be ordered by Ki: under 20 nM for the first, under 20 nM for the second.

Compared with C[C@@H](NC(=O)[C@H](O)[C@@H](O)C(=O)N1CCC[C@@H]1c1csc(N(C)C)n1)c1ccc(-n2cccn2)cc1 [Compound 2260], CCNc1nc([C@H]2CCCN2C(=O)[C@H](O)[C@@H](O)C(=O)N[C@H](C)c2ccc(-n3cccn3)cc2)cs1 [Compound 2256] is lower in Ki: 20 to 100 nM for the first, under 20 nM for the second.

First: C[C@@H](NC(=O)[C@H](O)[C@@H](O)C(=O)N1CCCc2ccccc21)c1ccc(-n2cccn2)cc1 [Compound 2421]
Second: C[C@@H](NC(=O)[C@H](O)[C@@H](O)C(=O)N1CCC[C@@H]1c1ncccn1)c1ccc(-n2cccn2)cc1 [Compound 2242]
The Ki of the first is higher: 100 to 1000 nM for the first, under 20 nM for the second. The second binds more tightly here.

Compared with C[C@@H](NC(=O)[C@H](O)[C@@H](O)C(=O)N1CCc2cc(Cl)c(Cl)cc2C1c1ccccc1)c1ccc(-n2cccn2)cc1 (stereo partly drawn) [Compound 2443], C[C@@H](NC(=O)[C@H](O)[C@@H](O)C(=O)N1C[C@H](O)[C@H](O)[C@H]1c1cccc(Cl)c1)c1ccc(-n2cccn2)cc1 [Compound 2267] is higher in Ki: under 20 nM for the first, 100 to 1000 nM for the second.

Compared with N#Cc1ccccc1N1CCC2(CC1)CC2NC(=O)[C@H](O)[C@@H](O)C(=O)N1Cc2ccccc2C1 (stereo partly drawn) [Compound 2154], N#Cc1cc(F)ccc1N1C[C@@H]2C(CNC(=O)[C@H](O)[C@@H](O)C(=O)N3CCCC3)[C@@H]2C1 (stereo partly drawn) [Compound 2147] is lower in Ki: over 1000 nM for the first, 100 to 1000 nM for the second.

C[C@@H](NC(=O)[C@H](O)[C@@H](O)C(=O)N1C[C@@H]2C[C@H](C1)c1cccc(=O)n1C2)c1ccc(-n2cccn2)cc1 [Compound 2097] and C[C@@H](NC(=O)[C@H](O)[C@@H](O)C(=O)N1CCCC(C)(C)C1)c1ccc(-n2cccn2)cc1 [Compound 2412] fall in the same range of Ki: 100 to 1000 nM for the first, 100 to 1000 nM for the second.

N#Cc1ccccc1N1CCC2(CC1)CC2NC(=O)[C@H](O)[C@@H](O)C(=O)N1Cc2ccccc2C1 (stereo partly drawn) [Compound 2155] and COc1cccc([C@@H](C)NC(=O)[C@H](O)[C@@H](O)C(=O)N2Cc3cccnc3C2)c1 [Compound 2306] cannot be ordered by Ki: over 1000 nM for the first, over 1000 nM for the second.

Compared with C[C@@H](NC(=O)[C@](C)(O)[C@@H](O)C(=O)N1Cc2cccnc2C1)c1ccc(-n2cccn2)c(OCC2CC2)c1 [Compound 2358], C[C@@H](NC(=O)[C@](C)(O)[C@@H](O)C(=O)N1CCc2ccc(F)cc2C1)c1ccc(-n2cccn2)cc1 [Compound 2440] is lower in Ki: 100 to 1000 nM for the first, 20 to 100 nM for the second. The second binds more tightly here.

Compared with C[C@@H](NC(=O)[C@H](O)[C@@H](O)C(=O)N1CCCCC1c1nccs1)c1ccc(-n2cccn2)cc1 (stereo partly drawn) [Compound 2416], CNc1nc([C@H]2CCCN2C(=O)[C@H](O)[C@@H](O)C(=O)N[C@H](C)c2ccc(-n3cccn3)cc2)c(C#N)s1 [Compound 2269] is lower in Ki: 20 to 100 nM for the first, under 20 nM for the second. The second binds more tightly here.

Compared with C[C@@H](NC(=O)[C@H](O)[C@@H](O)C(=O)N1CC(C)(C)C[C@]1(C)c1cccc(Cl)c1)c1ccc(-n2cccn2)cc1 [Compound 2240], CNc1nc(C2(C)CCCN2C(=O)[C@H](O)[C@@H](O)C(=O)N[C@H](C)c2ccc(-n3cccn3)cc2)cs1 (stereo partly drawn) [Compound 2244] is lower in Ki: 20 to 100 nM for the first, under 20 nM for the second.

For C[C@H](c1ccc(-n2cccn2)cc1)N1CCO[C@H]([C@@H](O)C(=O)N2CCCC2c2ccccc2)C1=O (stereo partly drawn) [Compound 2478], the Ki was over 1000 nM.

same assay, conditions: TACE, representative compounds, numeric values; read-out: Ki

CC(C)Nc1nc([C@@H]2c3ccc(Cl)cc3CCN2C(=O)[C@H](O)[C@@H](O)C(=O)N[C@H](C)c2ccc(-n3cccn3)cc2)cs1 [drawing 1324] and CNc1nc([C@H]2CC(F)(F)CN2C(=O)[C@H](O)[C@@H](O)C(=O)N[C@H](C)c2ccc(-n3cccn3)cc2)cs1 [drawing 1327] are within 1.5-fold of each other in Ki: 3.3 nM for the first, 3.9 nM for the second.

CC#CCOc1cc([C@@H](C)NC(=O)[C@](C)(O)[C@@H](O)C(=O)N2Cc3cccnc3C2)ccc1-n1cccn1 [drawing 1313] and CC#CCOc1cc([C@@H](C)NC(=O)[C@H](O)[C@@H](O)C(=O)N2CC=CC2c2cccc(Cl)c2)ccc1-n1cccn1 (stereo partly drawn) [drawing 1314] are within 1.5-fold of each other in Ki: 1.44 nM for the first, 1.54 nM for the second.

Going from C[C@@H](NC(=O)[C@H](O)[C@@H](O)C(=O)N1Cc2ccccc2C1)c1ccc(-c2ccsc2)cc1 to C[C@@H](NC(=O)[C@H](O)[C@@H](O)C(=O)N1CC=CC1c1cccc(Cl)c1)c1ccc(-n2cccn2)cc1 (stereo partly drawn), the Ki falls from 3.8 nM to 0.6 nM (6.3-fold).

Compared with C[C@@H](NC(=O)[C@H](O)[C@@H](O)C(=O)N1CCC[C@@H]1c1ccn(-c2ccc(F)cc2)n1)c1ccc(-n2cccn2)cc1 [drawing 1320], CNc1nc([C@H]2CCCN2C(=O)[C@H](O)[C@@H](O)C(=O)N[C@H](C)c2ccc(-n3cccn3)cc2)c(S(C)(=O)=O)s1 [drawing 1294] is 7.1-fold lower in Ki: 2.7 nM for the first, 0.38 nM for the second.

Work on CC#CCOc1cc([C@@H](C)NC(=O)[C@H](O)[C@@H](O)C(=O)N2CCC[C@@H]2c2csc(NC(C)C)n2)ccc1-n1cccn1 yielded a Ki of 2.9 nM.
